In article PMC6383986, “Fragment-Based Covalent Ligand Screening Enables Rapid Discovery of Inhibitors for the RBR E3 Ubiquitin Ligase HOIP” (Journal of the American Chemical Society, 2019):

Tests used:
[1] = target: T1, wild type HOIP RBR domain (Homo sapiens, UniProt Q96EP0); assay: Protein LC-MS kinetics of covalent labeling; assay type: binding
T1 construct: made in house; host or cells: E. coli BL21-GOLD(DE3)
T1 sequence (Q96EP0 697-1072): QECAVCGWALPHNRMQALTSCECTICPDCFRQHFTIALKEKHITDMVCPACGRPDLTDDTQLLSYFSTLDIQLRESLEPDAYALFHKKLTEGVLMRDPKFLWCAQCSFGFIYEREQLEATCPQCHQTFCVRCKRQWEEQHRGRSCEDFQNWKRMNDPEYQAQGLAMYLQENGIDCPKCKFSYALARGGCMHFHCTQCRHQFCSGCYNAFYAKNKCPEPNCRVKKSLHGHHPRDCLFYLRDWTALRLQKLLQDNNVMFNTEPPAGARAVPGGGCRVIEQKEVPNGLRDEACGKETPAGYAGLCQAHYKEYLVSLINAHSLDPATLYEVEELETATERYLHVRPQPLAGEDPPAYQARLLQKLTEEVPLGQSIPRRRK
Procedure: negative control and compound solutions data points were acquired after 0.5, 4, and 24 h […]
Protocol as described above, using the HOIP RBR C885S mutant (155 µM stock solution in 50 mM HEPES, 150 mM NaCl, 1 mM DTT, pH 7.5) and 50 mM HEPES, 150 mM NaCl, pH 7.5 buffer.
The stock solution at 4 µM (25 µL per sample, final concentration 2 µM, 87 µg/mL), was mixed with buffer (24.5 µL) and compound (5) (0.5 µL of 2, and 20 mM stock solutions in DMSO, giving a final concentration of 20 and 200 µM respectively, and 1% DMSO). Data points were acquired after 0.5 and 4 h incubation.
The HOIP RBR domain wild type was diluted with 50 mM HEPES, 150 mM NaCl, pH 7.5 buffer to afford a new stock solution at 2.02 µM, which was aliquoted into 10 × 297 µL. Compound (5) stock solutions (3.0 µL each) at 0, 0.2, 0.8, 2, 4, 10, 20 and 40 mM in DMSO were added to give final compound concentrations at 0, 2, 8, 20, 40, 100, 200 and 400 µM respectively. Immediately after addition the samples were vortexed briefly and the time zero aliquots (25 µL) withdrawn, flash frozen in liquid nitrogen and stored at -80 °C. The protein solutions were incubated at 800 rpm (Eppendorf Thermomixer), 23 °C. Additional aliquots (all 25 µL) were similarly withdrawn after […]
thawed individually and analyzed by protein mass spectrometry as described above. The total ion counts (TICs) detected for unlabelled HOIP and labelled HOIP-(5) conjugate within a peak elution range of 10 seconds were used to calculate the ratio of labelled HOIP RBR over total HOIP RBR content for each sample. The averaged data from 3 independent experiments were analyzed according to a two-step model of reversible ligand binding followed by irreversible covalent modification (Supplementary Figure S2A),11 fitted to a single exponential equation (equation 1, Supplementary Figure S2B) using GraFit (v.7). The observed rate constants (kobs) relate to Kd and kinact as depicted in equation 2 (Supplementary Figure S2C), although for compounds with weak affinities (such as fragments) the Kd is typically larger than the highest tested compound concentration (limited by aqueous solubility), and the kobs display a linear relationship to compound concentration, and a slope that equals to kinact/Kd (Figure 3D, Supplementary Figure […]
Protein labelling: The HOIP RBR domain (16 µM) in buffer (50 mM HEPES, 150 mM NaCl, pH 7.5) was incubated with compound (5) (267 µM; 16-fold excess) at ambient temperature at 600 rpm (Heidolph Instruments) for 21 h. The protein was purified on a buffer exchanged spin chromatography column (Micro Bio-spin 6, Bio-Rad Laboratories) according to the vendor’s instructions to afford a stock solution of the HOIP RBR-(5) complex at a concentration of 7.6 µM (0.33 mg/mL) as determined by Nanodrop UV spectrophotometer. […]

[2] = target: T2, IRAK4 (Homo sapiens, UniProt Q9NWZ3); assay: IMAP-FP IRAK4 substrate phosphorylation assay; assay type: biochemical
T2 construct: recombinant full length IRAK4-FLAG; His6 (with the rest of the FlagHisAvi vector tag) (C, cleaved yes); made in house; host or cells: Sf9 insect cells (baculovirus)
T2 sequence (Q9NWZ3 whole entry): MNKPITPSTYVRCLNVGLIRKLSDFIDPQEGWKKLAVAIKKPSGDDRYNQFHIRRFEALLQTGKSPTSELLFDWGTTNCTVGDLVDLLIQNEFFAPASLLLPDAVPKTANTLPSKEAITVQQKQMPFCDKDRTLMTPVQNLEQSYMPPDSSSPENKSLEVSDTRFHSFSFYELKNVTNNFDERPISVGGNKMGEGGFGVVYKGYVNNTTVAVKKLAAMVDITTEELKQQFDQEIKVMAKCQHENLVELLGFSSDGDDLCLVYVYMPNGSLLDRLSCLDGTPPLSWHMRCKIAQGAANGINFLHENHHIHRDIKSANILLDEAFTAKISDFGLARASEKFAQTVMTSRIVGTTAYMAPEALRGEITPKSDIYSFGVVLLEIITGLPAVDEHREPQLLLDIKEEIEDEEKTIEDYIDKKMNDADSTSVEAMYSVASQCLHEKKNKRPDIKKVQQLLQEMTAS

| kinact/Kd ([1]; gradient of kobs vs concentration, 0-400 μM, 2 μM protein) | ligand efficiency, LE ([1]; inferred from lower limit of Kd) | kinact ([1]; lower limit, following from Kd limit) | Kd ([1]; lower limit, kobs linear across range tested) | IC50 ([2]; 1 h preincubation, 6 nM IRAK4, 50 μM ATP) | inhibition of IRAK4 substrate phosphorylation ([2]; concentrations up to 200 μM) | SMILES |
| --- | --- | --- | --- | --- | --- | --- |
| 0.97 ± 0.01 M^–1 s^–1 | < 0.24 | > 0.0004 s⁻¹ | > 400 µM |  |  | COC(=O)/C=C/CNC(=O)c1cc2c([nH]c1=O)CCC2 [Compound 5] |
|  |  |  |  | > 200 µM | no inhibition | COC(=O)/C=C/CNC(=O)c1cc2c([nH]c1=O)CCCC2 [Compound 11a] |
